The molecules below were run against T1, human GPR119 (Homo sapiens, UniProt Q8TDV5) (assay: Measurement of GPR119 signaling (cAMP assay) in cells stably transfected with human GPR119). Conditions: table column; cAMP stimulation, human GPR119; read-out: GPR119 Human EC50.
T1 sequence (Q8TDV5 1-308 limits assumed): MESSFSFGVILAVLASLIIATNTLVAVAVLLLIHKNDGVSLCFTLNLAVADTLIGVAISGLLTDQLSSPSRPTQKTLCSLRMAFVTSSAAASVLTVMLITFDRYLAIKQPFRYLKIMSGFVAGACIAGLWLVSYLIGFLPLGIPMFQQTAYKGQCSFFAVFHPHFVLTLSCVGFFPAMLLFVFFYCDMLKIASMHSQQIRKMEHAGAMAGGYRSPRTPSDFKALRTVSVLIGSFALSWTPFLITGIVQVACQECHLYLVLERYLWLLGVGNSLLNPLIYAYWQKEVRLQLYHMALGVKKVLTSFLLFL
Assay type: cell-based

SMILES | EC50 [nM]
CC(C)c1noc(N2CCC([C@H]3C[C@H]3CCOc3ccc(CC(=O)N(C)C)cc3)CC2)n1 [Example 137] | 6.7
CC(C)c1noc(N2CCC([C@H]3C[C@H]3CCOc3ccc(CC(=O)N4CCC4)c(F)c3)CC2)n1 [Example 138] | 2
CC(C)c1noc(N2CCC([C@H]3C[C@H]3CCOc3ccc(CC(=O)N4CC(O)C4)c(F)c3)CC2)n1 [Example 139] | 6
CC(C)c1noc(N2CCC([C@H]3C[C@H]3CCOc3ccc(CC(=O)N4CC(C)(O)C4)c(F)c3)CC2)n1 [Example 140] | 3.6
COC1CN(C(=O)Cc2ccc(OCC[C@@H]3C[C@@H]3C3CCN(c4nc(C(C)C)no4)CC3)cc2F)C1 [Example 141] | 0.93
CC(C)c1noc(N2CCC([C@H]3C[C@H]3CCOc3ccc(CC(=O)N4CCOCC4)c(F)c3)CC2)n1 [Example 142] | 0.84
CC(C)c1noc(N2CCC([C@H]3C[C@H]3CCOc3ccc(CC(=O)N(C)C)c(F)c3)CC2)n1 [Example 143] | 0.94
CCN(CC)C(=O)Cc1ccc(OCC[C@@H]2C[C@@H]2C2CCN(c3nc(C(C)C)no3)CC2)cc1F [Example 144] | 1.8
CC(C)c1noc(N2CCC([C@H]3C[C@H]3CCOc3ccc(CC(=O)N4CCCCC4)c(F)c3)CC2)n1 [Example 145] | 1.7
CC(C)c1noc(N2CCC([C@H]3C[C@H]3CCOc3ccc(CC(=O)N4CCCC4)c(F)c3)CC2)n1 [Example 146] | 1.2
CC(C)c1noc(N2CCC([C@H]3C[C@H]3CCOc3ccc(CC(=O)N4CC(F)(F)C4)c(F)c3)CC2)n1 [Example 147] | 0.55
CC(C)c1noc(N2CCC([C@H]3C[C@H]3CCOc3ccc(CC(=O)N4CCC(F)(F)CC4)c(F)c3)CC2)n1 [Example 148] | 1.7
CC(C)c1noc(N2CCC([C@H]3C[C@H]3CCOc3ccc(CC(=O)N4CC(C(C)(C)O)C4)c(F)c3)CC2)n1 [Example 149] | 8.2
CC(C)c1noc(N2CCC([C@H]3C[C@H]3CCOc3ccc(CC(=O)NC4CC4)c(F)c3)CC2)n1 [Example 150] | 2.1
CC(C)c1noc(N2CCC([C@H]3C[C@H]3CCOc3ccc(CC(=O)NC4CCC4)c(F)c3)CC2)n1 [Example 151] | 3.2
CC(C)c1noc(N2CCC([C@H]3C[C@H]3CCOc3ccc(CC(=O)NC4CC4(F)F)c(F)c3)CC2)n1 (some centres unmarked) [Example 152] | 6.3
CC(C)c1noc(N2CCC([C@H]3C[C@H]3CCOc3ccc(CC(=O)NC4(C(F)(F)F)CC4)c(F)c3)CC2)n1 [Example 153] | 4.3
CC(C)c1noc(N2CCC([C@H]3C[C@H]3CCOc3ccc(CC(=O)N(C)C4CCCC4)c(F)c3)CC2)n1 [Example 154] | 5
CC(C)c1noc(N2CCC([C@H]3C[C@H]3CCOc3ccc(CC(=O)NCC4CC4)c(F)c3)CC2)n1 [Example 155] | 7.5
CC(C)c1noc(N2CCC([C@H]3C[C@H]3CCOc3ccc(CC(=O)NC4CCCC4)c(F)c3)CC2)n1 [Example 156] | 5.4
CC(C)c1noc(N2CCC([C@H]3C[C@H]3CCOc3ccc(CC(=O)NCC(F)(F)F)c(F)c3)CC2)n1 [Example 157] | 3.9

SMILES | EC50 [nM]
CC(C)c1noc(N2CCC([C@H]3C[C@H]3CCOc3ccc(CC(=O)N4C[C@H](F)[C@@H](F)C4)c(F)c3)CC2)n1 [Example 158] | 1.1
CC(C)c1noc(N2CCC([C@H]3C[C@H]3CCOc3ccc(CC(=O)N4Cc5cccnc5C4)c(F)c3)CC2)n1 [Example 159] | 0.93
CC(C)c1noc(N2CCC([C@H]3C[C@H]3CCOc3ccc(CC(=O)N(C)C4CCOCC4)c(F)c3)CC2)n1 [Example 160] | 4.8
CC(C)c1noc(N2CCC([C@H]3C[C@H]3CCOc3ccc(CC(=O)N(C)C4CCOC4)c(F)c3)CC2)n1 (some centres unmarked) [Example 161] | 1.1
CC(C)c1noc(N2CCC([C@H]3C[C@H]3CCOc3ccc(CC(=O)N(C)C4CCS(=O)(=O)C4)c(F)c3)CC2)n1 (some centres unmarked) [Example 162] | 2
Cc1nc(CN(C)C(=O)Cc2ccc(OCC[C@@H]3C[C@@H]3C3CCN(c4nc(C(C)C)no4)CC3)cc2F)cs1 [Example 163] | 2.3
CC(C)c1noc(N2CCC([C@H]3C[C@H]3CCOc3ccc(CC(=O)N(C)Cc4ccon4)c(F)c3)CC2)n1 [Example 164] | 1.7
CC(C)c1noc(N2CCC([C@H]3C[C@H]3CCOc3ccc(CC(=O)N(C)C4(C)CCCC4)c(F)c3)CC2)n1 [Example 165] | 8.1
CC(C)c1noc(N2CCC([C@H]3C[C@H]3CCOc3ccc(CC(=O)N(C)Cc4cscn4)c(F)c3)CC2)n1 [Example 166] | 2.6
CC(C)c1noc(N2CCC([C@H]3C[C@H]3CCOc3ccc(CC(=O)N(C)Cc4cc[nH]n4)c(F)c3)CC2)n1 [Example 167] | 3.1
CC(C)c1noc(N2CCC([C@H]3C[C@H]3CCOc3ccc(CC(=O)N(C)CCn4cncn4)c(F)c3)CC2)n1 [Example 168] | 7.9
CC(C)c1noc(N2CCC([C@H]3C[C@H]3CCOc3ccc(CC(=O)N(C)CC4CCC(=O)N4C)c(F)c3)CC2)n1 (some centres unmarked) [Example 169] | 7.7
CC(C)c1noc(N2CCC([C@H]3C[C@H]3CCOc3ccc(CC(=O)N(C)CC4CCC(=O)N4)c(F)c3)CC2)n1 (some centres unmarked) [Example 170] | 7.9
CC(C)c1noc(N2CCC([C@H]3C[C@H]3CCOc3ccc(CC(=O)N(C)Cc4cncs4)c(F)c3)CC2)n1 [Example 171] | 1.5
CC(C)c1noc(N2CCC([C@H]3C[C@H]3CCOc3ccc(CC(=O)N(C)C4COC4)c(F)c3)CC2)n1 [Example 172] | 0.88
CC(C)c1noc(N2CCC([C@H]3C[C@H]3CCOc3ccc(CC(=O)N4CCc5ccsc5C4)c(F)c3)CC2)n1 [Example 173] | 2.2
CC(C)c1noc(N2CCC([C@H]3C[C@H]3CCOc3ccc(CC(=O)N4CCC(C)(O)C4)c(F)c3)CC2)n1 (some centres unmarked) [Example 174] | 11.4
CC(C)c1noc(N2CCC([C@H]3C[C@H]3CCOc3ccc(CC(=O)N4CCc5cncnc5C4)c(F)c3)CC2)n1 [Example 175] | 3.2
CC(C)c1noc(N2CCC([C@H]3C[C@H]3CCOc3ccc(CC(=O)N4CCn5c(nnc5C5CC5)C4)c(F)c3)CC2)n1 [Example 176] | 5.7
CC(C)c1noc(N2CCC([C@H]3C[C@H]3CCOc3ccc(CC(=O)N4CCc5oncc5C4)c(F)c3)CC2)n1 [Example 177] | 1.8
CC(C)c1noc(N2CCC([C@H]3C[C@H]3CCOc3ccc(CC(=O)N4CCn5nc(C(F)(F)F)nc5C4C)c(F)c3)CC2)n1 (some centres unmarked) [Example 178] | 14

SMILES | EC50 [nM]
Cc1nc2c(s1)CN(C(=O)Cc1ccc(OCC[C@@H]3C[C@@H]3C3CCN(c4nc(C(C)C)no4)CC3)cc1F)CC2 [Example 179] | 2.6
CC(C)c1noc(N2CCC([C@H]3C[C@H]3CCOc3ccc(CC(=O)N4CCn5ccnc5C4)c(F)c3)CC2)n1 [Example 180] | 4.9
CC(C)c1noc(N2CCC([C@H]3C[C@H]3CCOc3ccc(CC(=O)N4CCc5cccnc5C4)c(F)c3)CC2)n1 [Example 181] | 3.7
CC(C)c1noc(N2CCC([C@H]3C[C@H]3CCOc3ccc(CC(=O)N4Cc5nnc(C(F)(F)F)n5C(C)C4)c(F)c3)CC2)n1 (some centres unmarked) [Example 182] | 8.7
Cc1nc2c(o1)CN(C(=O)Cc1ccc(OCC[C@@H]3C[C@@H]3C3CCN(c4nc(C(C)C)no4)CC3)cc1F)CC2 [Example 183] | 2.1
CC(C)c1noc(N2CCC([C@H]3C[C@H]3CCOc3ccc(CC(=O)N4CCc5nc(C(F)(F)F)sc5C4)c(F)c3)CC2)n1 [Example 184] | 3.5
CC(C)c1noc(N2CCC([C@H]3C[C@H]3CCOc3ccc(CC(=O)N4Cc5nnc(C(F)(F)F)n5C(C)(C)C4)c(F)c3)CC2)n1 [Example 185] | 8.8
CC(C)c1noc(N2CCC([C@H]3C[C@H]3CCOc3ccc(CC(=O)N4CC(O)(C(F)(F)F)C4)c(F)c3)CC2)n1 [Example 186] | 2.6
CC(C)c1noc(N2CCC([C@H]3C[C@H]3CCOc3ccc(CC(=O)N4CC(n5cccn5)C4)c(F)c3)CC2)n1 [Example 187] | 3
CC(C)c1noc(N2CCC([C@H]3C[C@H]3CCOc3ccc(CC(=O)N4CC(n5ccnc5)C4)c(F)c3)CC2)n1 [Example 188] | 6.4
CC(C)c1noc(N2CCC([C@H]3C[C@H]3CCOc3ccc(CC(=O)N4Cc5sccc5C(O)C4)c(F)c3)CC2)n1 (some centres unmarked) [Example 189] | 4.7
CC(C)c1noc(N2CCC([C@H]3C[C@H]3CCOc3ccc(CC(=O)N4CC(c5cccnc5)C4)c(F)c3)CC2)n1 [Example 190] | 3.6
CC(C)c1noc(N2CCC([C@H]3C[C@H]3CCOc3ccc(CC(=O)NC4CCC(F)(F)C4)c(F)c3)CC2)n1 (some centres unmarked) [Example 191] | 2.8
Cc1nc2c([nH]1)CN(C(=O)Cc1ccc(OCC[C@@H]3C[C@@H]3C3CCN(c4nc(C(C)C)no4)CC3)cc1F)C2 [Example 192] | 4.2
CC(C)c1noc(N2CCC([C@H]3C[C@H]3CCOc3ccc(CC(=O)N4CCc5nccnc5C4)c(F)c3)CC2)n1 [Example 193] | 1.3
CC(C)c1noc(N2CCC([C@H]3C[C@H]3CCOc3ccc(CC(=O)N4CCn5nc(C(F)(F)F)nc5C4)c(F)c3)CC2)n1 [Example 194] | 1.5
CC(C)c1noc(N2CCC([C@H]3C[C@H]3CCOc3ccc(CC(=O)N4CCn5ncnc5C4)c(F)c3)CC2)n1 [Example 195] | 1.6
Cc1nc2c(o1)CCN(C(=O)Cc1ccc(OCC[C@@H]3C[C@@H]3C3CCN(c4nc(C(C)C)no4)CC3)cc1F)C2 [Example 196] | 1.4
CC(C)c1noc(N2CCC([C@H]3C[C@H]3CCOc3ccc(CC(=O)N4CCc5[nH]nnc5C4)c(F)c3)CC2)n1 [Example 197] | 2.9
COCc1noc(N2CCC([C@H]3C[C@H]3CCOc3ccc(CC(=O)NC4CC4)c(F)c3)CC2)n1 [Example 198] | 13

Source: patent US8957062B2, “Substituted cyclopropyl compounds, compositions containing such compounds and methods of treatment” (Merck Sharp & Dohme Corp., priority 2011, dated 2015)
